Test results as given in PMC7468467, “Characterization of a Novel Chromosomal Class C β-Lactamase, YOC-1, and Comparative Genomics Analysis of a Multidrug Resistance Plasmid in Yokenella regensburgei W13” (Frontiers in Microbiology, 2020).

Biological target: T1, YOC-1 (Yokenella regensburgei, UniProt A0AB38FXT7)
T1 construct: gene C7387_3136; signal peptide (residues 1-22) removed; pCold I in E. coli BL21, N-terminal His tag removed by enterokinase
Test: nitrocefin hydrolysis inhibition, spectrophotometric
Assay type: biochemical
Settings: 100 μM nitrocefin; 5 min preincubation; 37°C

T1 sequence (A0AB38FXT7 entry or part of it): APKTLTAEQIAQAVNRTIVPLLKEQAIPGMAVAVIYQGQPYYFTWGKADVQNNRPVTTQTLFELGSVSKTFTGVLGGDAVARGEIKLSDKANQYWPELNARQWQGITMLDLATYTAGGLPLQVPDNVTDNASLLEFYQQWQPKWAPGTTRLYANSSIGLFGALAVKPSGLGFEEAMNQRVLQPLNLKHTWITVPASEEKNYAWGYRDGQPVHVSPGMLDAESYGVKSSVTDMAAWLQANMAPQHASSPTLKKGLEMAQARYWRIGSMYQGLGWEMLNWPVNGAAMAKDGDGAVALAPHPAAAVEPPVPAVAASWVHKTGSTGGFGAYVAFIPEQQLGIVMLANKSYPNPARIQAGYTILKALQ

SMILES	IC50
Nc1nc2c(ncn2[C@@H]2O[C@H](COP(=O)(O)O)[C@@H](O)[C@H]2O)c(=O)[nH]1 [GMP]	81.73 ± 0.02 µM
NC(=O)[C@@H]1CC[C@@H]2CN1C(=O)N2OS(=O)(=O)O [avibactam]	0.00117 ± 0.0002 µM
O=C(O)[C@H]1/C(=C/CO)O[C@@H]2CC(=O)N21 [clavulanic acid]	57.33 ± 0.03 µM
